Reference: US20260115170A1, “Method of Ameliorating a Symptom or a Disease in a Human Caused by Fungus” (ISHIHARA SANGYO KAISHA, LTD., priority 2020, published 2026)
Converted amounts (≈) assume the structure as drawn.

Key:
Type in all cases: cell-based
[1] = test system: Arthroderma vanbreuseghemii (JCM1891); test: Test Example 2 minimum inhibitory concentration; details: Trichophyton mentagrophytes, Sabouraud medium, 25° C. for 120 hours
Protocol: (§1) Test Microbial Strains: Candida albicans (NBRC1594 Strain), Candida glabrata (JCM3761 Strain), Cryptococcus neoformans (JCM3685 Strain), Aspergillus fumigatus (JCM10253), Aspergillus niger (ATCC6725), Trichophyton rubrum (ATCCMYA4607), Trichophyton interdegitale (ATCC9533), Microsporum canis (NBRC7863), and Arthroderma vanbreuseghemii (JCM1891)
(§2) The Candida microbes and the Cryptococcus microbe were cultured at 30° C. for 72 hours and the other microbes were cultured at 25° C. for 120 hours in Sabouraud media, and then suspended in 5 mL of PBS (containing 8 g of sodium chloride, 2.9 g of disodium hydrogen phosphate, 0.2 g of potassium chloride, and 0.2 g of potassium dihydrogen phosphate in 1000 mL) containing Tween80 (polyoxyethylene sorbitan monooleate: Kanto Chemical Co., Inc.) (1% (V/V))), and the resulting suspension was filtered through a cell strainer (φ40 μm). Spores were recovered from the filtrate by centrifugation (3500 rpm, 5 minutes) and washed twice with physiological saline, and then a spore suspension was prepared (1×10^6 spores/mL). 50 μL of the spore suspension was inoculated into a Sabouraud medium to which compound No. 6 dissolved in DMSO was added to have a predetermined concentration. The Candida microbes and the Cryptococcus microbe were cultured at 30° C. for 72 hours and the other microbes were cultured at 25° C. for 120 hours, then the presence or absence of colony growth was investigated, and the minimum inhibitory concentration was determined.

[2] = test system: Aspergillus fumigatus (JCM10253); test: Test Example 2 minimum inhibitory concentration; details: Sabouraud medium, 25° C. for 120 hours
Protocol: as §1, §2

[3] = test system: Aspergillus niger (ATCC6725); test: Test Example 2 minimum inhibitory concentration; details: Sabouraud medium, 25° C. for 120 hours
Protocol: as §1, §2

[4] = test system: Candida albicans (NBRC1594 Strain); test: Test Example 2 minimum inhibitory concentration; details: Sabouraud medium, 30° C. for 72 hours
Protocol: as §1, §2

[5] = test system: Candida glabrata (JCM3761 Strain); test: Test Example 2 minimum inhibitory concentration; details: Nakaseomyces glabratus, Sabouraud medium, 30° C. for 72 hours
Protocol: as §1, §2

[6] = test system: Cryptococcus neoformans (JCM3685 Strain); test: Test Example 2 minimum inhibitory concentration; details: Sabouraud medium, 30° C. for 72 hours
Protocol: as §1, §2

[7] = test system: Microsporum canis (NBRC7863); test: Test Example 2 minimum inhibitory concentration; details: Sabouraud medium, 25° C. for 120 hours
Protocol: as §1, §2

[8] = test system: Trichophyton interdegitale (ATCC9533); test: Test Example 2 minimum inhibitory concentration; details: Sabouraud medium, 25° C. for 120 hours
Protocol: as §1, §2

[9] = test system: Trichophyton rubrum (ATCCMYA4607); test: Test Example 2 minimum inhibitory concentration; details: Sabouraud medium, 25° C. for 120 hours
Protocol: as §1, §2

[10] = test system: Malassezia furfur (IFM 55951); test: Test Example 3-1 antifungal activity test, minimum fungicidal concentration after 1 minute; details: 1 minute contact, CHROMagar medium, 32° C. for 72 hours, read-out: Minimum fungicidal concentration (MFC100)
Protocol: (§3) Test Microbial Strains: Malassezia furfur (IFM 55951), Malassezia sympodialis (IFM 48588), and Malassezia globosa (IFM 51946) The Malassezia microbe (Malassezia furfur, Malassezia sympodialis, or Malassezia globosa) cultured in a CHROMagar™ Malassezia/Candida Prepared medium (peptone, special enzyme substrate mixture, chloramphenicol, olive oil, agar, manufactured by Kanto Chemical Co., Inc.) for 5 to 7 days was suspended in physiological saline, and a suspension thereof was prepared in such a way as to have an absorbance of 0.025 at 600 nm. Thereto, the test compound dissolved in DMSO was added in such a way as to provide a final concentration of 200, 100, 50, or 25 ppm, and after 1 minute, 10 μL of the suspension and 10 mL of physiological saline were placed in a syringe and stirred, and the syringe was connected to a 37 mm Quality Monitor (manufactured by Pall Corporation) followed by filtration and washing twice with 10 mL of physiological saline. The membrane filter was removed from the Quality Monitor, placed on a CHROMagar™ Malassezial Candida Prepared medium, and was subjected to culturing at 32° C. for 72 hours, the presence or absence of colony growth was investigated, and the minimum fungicidal concentration (MFC100) was determined.

[11] = test system: Malassezia globosa (IFM 51946); test: as above; details: 1 minute contact, CHROMagar medium, 32° C. for 72 hours, read-out: Minimum fungicidal concentration (MFC100)
Protocol: as §3

[12] = test system: Malassezia sympodialis (IFM 48588); test: as above; details: 1 minute contact, CHROMagar medium, 32° C. for 72 hours, read-out: Minimum fungicidal concentration (MFC100)
Protocol: as §3

[13] = test system: Malassezia restricta (IFM55992); test: Test Example 3-2 antifungal activity test, minimum fungicidal concentration after 1 minute; details: 1 minute contact, MLNA medium, 32° C. for 72 hours, read-out: Minimum fungicidal concentration (MFC100)
Protocol: Test Microbial Strain: Malassezia restricta (IFM55992) The Malassezia microbe (Malassezia restricta) cultured in a CHROMagar™ Malassezial Candida Prepared medium (peptone, special enzyme substrate mixture, chloramphenicol, olive oil, agar, manufactured by Kanto Chemical Co., Inc.) for 5 to 7 days was suspended in physiological saline, and a suspension thereof was prepared in such a way as to have an absorbance of 0.025 at 600 nm. Thereto, the test compound dissolved in DMSO was added in such a way as to provide a final concentration of 200, 100, 50, or 25 ppm, and after 1 minute, 10 μL of the suspension and 10 mL of physiological saline were placed in a syringe and stirred, and the syringe was connected to a 37 mm Quality Monitor (manufactured by Pall Corporation) followed by filtration and washing twice with 10 ml of physiological saline. The membrane filter was removed from the Quality Monitor, placed on a Leeming & Notman agar Modified medium (MLNA medium) (peptone, glucose, yeast extract, dried bovine bile, glycerol, glycerin stearate, Tween60, olive oil, agar), and subjected to culturing at 32° C. for 72 hours, the presence or absence of colony growth was investigated, and the minimum fungicidal concentration MFC100) was determined.

Question: Which results are given for Cc1ccc(-c2nc(C#N)[nH]c2Cl)cc1Cl [Compound No. 6, 5-Chloro-4-(3-chloro-4-methylphenyl)-1H-imidazole-2-carbonitrile]?
Answer: MIC [1]: 7.8 µg/mL (≈ 30.9 µM); MIC [2]: 62.5 µg/mL (≈ 248 µM); MIC [3]: 62.5 µg/mL (≈ 248 µM); MIC [4]: 250 µg/mL (≈ 992 µM); MIC [5]: 250 µg/mL (≈ 992 µM); MIC [6]: 31.3 µg/mL (≈ 124 µM); MIC [7]: 125 µg/mL (≈ 496 µM); MIC [8]: 62.5 µg/mL (≈ 248 µM); MIC [9]: 31.3 µg/mL (≈ 124 µM); MFC [10]: 50 µg/mL (≈ 198 µM); MFC [11]: 50 µg/mL (≈ 198 µM); MFC [12]: 50 µg/mL (≈ 198 µM); MFC [13]: 200 µg/mL (≈ 793 µM)
